Measured values as given in ChEMBL document CHEMBL1152960 (Bioorg Med Chem, 2009).

How the values were obtained:
[1] = target: Adenosine receptor A2a (Homo sapiens, UniProt P29274); assay: biochemical
Description: Displacement of [3H]CGS21680 from human recombinant adenosine A2A receptor expressed in HEK293T cells by scintillation counting

[2] = target: T1, Adenosine receptor A1 (Homo sapiens, UniProt P30542); assay: Displacement of [3H]DPCPX from human recombinant adenosine A1 receptor expressed in HEK293T cells by scintillation counting; assay type: cell-based, HEK-293T
T1 sequence (P30542 whole entry): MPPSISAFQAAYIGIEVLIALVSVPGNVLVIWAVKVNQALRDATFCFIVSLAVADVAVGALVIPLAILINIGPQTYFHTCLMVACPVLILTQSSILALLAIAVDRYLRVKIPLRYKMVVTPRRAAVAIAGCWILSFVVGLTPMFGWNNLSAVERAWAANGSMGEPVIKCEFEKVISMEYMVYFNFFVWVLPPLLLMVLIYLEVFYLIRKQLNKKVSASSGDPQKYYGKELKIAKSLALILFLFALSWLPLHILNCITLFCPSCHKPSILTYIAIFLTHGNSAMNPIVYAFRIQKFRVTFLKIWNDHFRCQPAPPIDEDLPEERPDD

[3] = target: T2, Adenosine receptor A3 (Homo sapiens, UniProt P0DMS8); assay: Displacement of [3H]NECA from human recombinant adenosine A3 receptor expressed in HEK293T cells by scintillation counting; assay type: cell-based, HEK-293T
T2 sequence (P0DMS8 whole entry): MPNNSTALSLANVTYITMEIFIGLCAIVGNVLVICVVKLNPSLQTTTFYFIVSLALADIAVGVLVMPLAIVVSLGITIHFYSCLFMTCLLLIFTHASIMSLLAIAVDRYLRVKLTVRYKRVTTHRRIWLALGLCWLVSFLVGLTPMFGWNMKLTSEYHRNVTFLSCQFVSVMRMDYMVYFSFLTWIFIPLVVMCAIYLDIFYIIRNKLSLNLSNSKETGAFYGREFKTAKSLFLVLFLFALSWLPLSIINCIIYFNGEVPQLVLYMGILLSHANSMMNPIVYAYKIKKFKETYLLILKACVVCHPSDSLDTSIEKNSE

[4] = target: T3, Adenosine receptor A3 (Homo sapiens) (UniProt P0DMS8); assay: Inhibition of [3H]NECA binding to human recombinant adenosine A3 receptor expressed in HEK293T cells at 100 uM by scintillation counting; assay type: cell-based; conditions: HEK-293T
T3 sequence (whole entry): T2 sequence (P0DMS8 whole entry)

Adenosine receptor A2a, sequence (P29274 whole entry): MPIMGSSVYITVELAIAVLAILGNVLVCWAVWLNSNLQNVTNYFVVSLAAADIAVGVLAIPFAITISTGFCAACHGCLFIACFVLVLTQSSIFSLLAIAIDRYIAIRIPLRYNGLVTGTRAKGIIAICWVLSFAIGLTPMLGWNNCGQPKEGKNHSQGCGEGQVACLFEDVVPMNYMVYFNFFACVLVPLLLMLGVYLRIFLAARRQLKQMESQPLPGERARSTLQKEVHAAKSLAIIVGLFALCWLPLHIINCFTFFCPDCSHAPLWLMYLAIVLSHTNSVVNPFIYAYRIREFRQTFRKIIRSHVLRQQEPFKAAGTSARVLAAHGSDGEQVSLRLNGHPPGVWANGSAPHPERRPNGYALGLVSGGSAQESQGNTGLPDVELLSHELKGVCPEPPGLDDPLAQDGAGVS

SMILES | Ki [1] | Ki [2] | Ki [3] | inhibition [4]
Cn1c(=O)c2[nH]c3cnccc3c2n(C)c1=O | 10100 nM | 11700 nM | 526 nM | 
CCCn1c(=O)c2[nH]c3cnccc3c2n(CCC)c1=O | 3630 nM | 1410 nM | 290 nM | 
Cn1c(=O)c2c(ncn2C)n(C)c1=O |  |  |  | 9%

Second part, the compound after the results:

Ki [1] | Ki [2] | Ki [3] | inhibition [4] | SMILES
570 nM | 132 nM | 16.8 nM |  | CCCn1c(=O)c2[nH]c3cccnc3c2n(CCC)c1=O
1470 nM | 921 nM | 209 nM |  | CCCOc1cnc2c(c1)[nH]c1c(=O)n(CCC)c(=O)n(CCC)c12
893 nM | 379 nM | 13.9 nM |  | Cn1c(=O)c2[nH]c3cccnc3c2n(C)c1=O
164 nM | 346 nM | 3.82 nM |  | CCCOc1cncc2[nH]c3c(=O)n(CCC)c(=O)n(CCC)c3c12
